{"source": "patent US20200291355A1", "about": "“ENGINEERED ERYTHROID CELLS INCLUDING LOADABLE ANTIGEN-PRESENTING POLYPEPTIDES AND METHODS OF USE” (Rubius Therapeutics, Inc., priority 2019, published 2020)", "system": "wt HLA-A2 or ds HLA-A2 antigen-presenting polypeptide (HLA*02:01)", "assay": "Binding kinetics of TAMRA-labeled HPV E7 antigenic polypeptides onto engineered enucleated erythroid cells (flow cytometry)", "set-up": "species or system human", "conditions": "10 ng/mL, about 90 minutes, 4° C., RT and 37° C.", "method": "To examine the antigenic polypeptide loading kinetics of loadable antigen-presenting polypeptides, the following experiment was performed."}
{"sequence": "YMLDLQPKT [HPV E7-E18K]", "values": [{"measurement": "Loading rate of fluorescent peptide compared with HPV E7-GGK", "setting": "onto cells including ds HLA-A2", "value": "more rapidly"}, {"measurement": "Loading rate of fluorescent peptide compared with HPV E7-GGK", "setting": "onto cells including wt HLA-A2", "value": "more rapidly"}]}
